{"source": "ChEMBL document CHEMBL1201862", "about": "“PubChem BioAssay data set” (2004)", "key": {"[1]": {"molecular_target": "T1, Heat shock factor protein 1 (Mus musculus, UniProt P38532)", "T1 sequence (P38532 whole entry)": "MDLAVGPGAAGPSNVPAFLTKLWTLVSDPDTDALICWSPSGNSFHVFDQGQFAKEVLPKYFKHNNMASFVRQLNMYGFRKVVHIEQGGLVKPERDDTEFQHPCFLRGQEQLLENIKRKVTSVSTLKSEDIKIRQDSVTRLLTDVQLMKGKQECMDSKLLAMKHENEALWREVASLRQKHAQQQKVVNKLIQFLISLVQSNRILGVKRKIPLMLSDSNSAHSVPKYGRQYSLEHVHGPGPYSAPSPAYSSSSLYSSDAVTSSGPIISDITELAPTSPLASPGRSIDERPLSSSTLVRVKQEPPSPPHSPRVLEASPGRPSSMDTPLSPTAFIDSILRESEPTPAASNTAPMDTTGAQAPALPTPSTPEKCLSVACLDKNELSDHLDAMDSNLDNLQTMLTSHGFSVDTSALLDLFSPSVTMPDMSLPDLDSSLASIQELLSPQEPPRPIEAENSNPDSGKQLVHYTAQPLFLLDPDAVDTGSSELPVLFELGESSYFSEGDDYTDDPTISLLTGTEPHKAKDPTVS", "assay": "inhibition of MG132-induced HSE-luciferase signal, confirmation, cell-based, NIH3T3, luminescence, dose retest (AID 2382);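 also: NIH3T3 fibroblasts with HSF1-driven luciferase reporter stressed by proteasome inhibitor MG132; luminescence from HSF1-driven luciferase expression after 8 hours of MG132 stress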", "format": "functional"}, "[2]": {"molecular_target": "Tyrosyl-DNA phosphodiesterase 2 (Homo sapiens, UniProt O95551)", "sequence (O95551 whole entry)": "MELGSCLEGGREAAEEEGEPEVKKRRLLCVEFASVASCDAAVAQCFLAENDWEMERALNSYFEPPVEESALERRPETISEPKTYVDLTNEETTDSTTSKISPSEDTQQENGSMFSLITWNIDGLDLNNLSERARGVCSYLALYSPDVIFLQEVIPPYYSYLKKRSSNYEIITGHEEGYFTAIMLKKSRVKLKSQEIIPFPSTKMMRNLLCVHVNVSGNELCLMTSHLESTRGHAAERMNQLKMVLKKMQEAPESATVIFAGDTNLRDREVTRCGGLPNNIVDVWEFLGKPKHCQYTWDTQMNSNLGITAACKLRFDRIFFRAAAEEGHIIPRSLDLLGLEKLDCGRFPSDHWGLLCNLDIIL", "assay": "human TDP2 enzyme inhibitors, dose response, biochemical, epi absorbance, IC50 (AID 743297)"}, "Protein RecA": {"molecular_target": "T2, Protein RecA (Mycobacterium tuberculosis, UniProt P9WHJ3)", "T2 sequence (P9WHJ3 whole entry)": "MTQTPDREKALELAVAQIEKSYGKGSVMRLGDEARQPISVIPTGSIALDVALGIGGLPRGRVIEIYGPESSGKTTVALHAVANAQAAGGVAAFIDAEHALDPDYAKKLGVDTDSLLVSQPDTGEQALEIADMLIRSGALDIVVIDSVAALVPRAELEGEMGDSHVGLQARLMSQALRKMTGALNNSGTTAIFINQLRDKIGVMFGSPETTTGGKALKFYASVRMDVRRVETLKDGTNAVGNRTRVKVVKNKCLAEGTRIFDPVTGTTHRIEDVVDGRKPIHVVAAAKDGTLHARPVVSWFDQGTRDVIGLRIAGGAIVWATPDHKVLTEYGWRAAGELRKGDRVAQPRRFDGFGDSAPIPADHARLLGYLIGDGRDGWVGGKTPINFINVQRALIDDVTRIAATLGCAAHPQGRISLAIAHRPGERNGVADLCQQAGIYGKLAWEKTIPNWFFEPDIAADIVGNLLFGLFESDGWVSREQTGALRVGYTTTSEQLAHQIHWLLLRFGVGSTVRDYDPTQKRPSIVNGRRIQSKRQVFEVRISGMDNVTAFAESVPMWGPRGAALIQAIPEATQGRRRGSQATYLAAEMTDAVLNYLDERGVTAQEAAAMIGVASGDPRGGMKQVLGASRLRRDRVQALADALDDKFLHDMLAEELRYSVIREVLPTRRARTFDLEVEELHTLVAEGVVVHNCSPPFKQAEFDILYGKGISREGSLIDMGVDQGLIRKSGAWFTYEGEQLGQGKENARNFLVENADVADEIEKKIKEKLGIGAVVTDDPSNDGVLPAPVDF", "assay": "Fluorescence Cell-Free Homogeneous Dose Retest to Identify Inhibitors of RecA-Intein Splicing Activity. [Related pubchem assays (depositor defined):AID2097, AID2223, AID489010, AID492950]", "format": "functional"}, "[3]": {"molecular_target": "Intestinal-type alkaline phosphatase (Homo sapiens, UniProt P09923)", "sequence (P09923 whole entry)": "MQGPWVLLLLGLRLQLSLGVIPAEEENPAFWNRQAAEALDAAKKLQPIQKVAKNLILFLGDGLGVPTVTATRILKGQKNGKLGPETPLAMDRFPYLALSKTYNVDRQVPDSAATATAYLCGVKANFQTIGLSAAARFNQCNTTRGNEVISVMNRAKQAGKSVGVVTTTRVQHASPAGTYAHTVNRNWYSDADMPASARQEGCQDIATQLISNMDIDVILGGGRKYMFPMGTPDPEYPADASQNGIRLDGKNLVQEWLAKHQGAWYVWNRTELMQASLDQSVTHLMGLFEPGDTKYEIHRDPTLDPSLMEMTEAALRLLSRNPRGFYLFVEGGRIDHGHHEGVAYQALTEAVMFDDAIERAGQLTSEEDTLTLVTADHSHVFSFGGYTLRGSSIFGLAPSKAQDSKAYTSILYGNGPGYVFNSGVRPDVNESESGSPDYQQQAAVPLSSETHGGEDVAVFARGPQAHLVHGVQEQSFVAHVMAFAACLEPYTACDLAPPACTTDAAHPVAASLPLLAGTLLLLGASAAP", "assay": "human IAP activators, dose response, biochemical, luminescent, uHTS hits, set 2 (AID 488817);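 also: potency of activators that raise enzyme activity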", "format": "functional"}, "[4]": {"molecular_target": "26S proteasome non-ATPase regulatory subunit 14 (Homo sapiens, UniProt O00487)", "sequence (O00487 whole entry)": "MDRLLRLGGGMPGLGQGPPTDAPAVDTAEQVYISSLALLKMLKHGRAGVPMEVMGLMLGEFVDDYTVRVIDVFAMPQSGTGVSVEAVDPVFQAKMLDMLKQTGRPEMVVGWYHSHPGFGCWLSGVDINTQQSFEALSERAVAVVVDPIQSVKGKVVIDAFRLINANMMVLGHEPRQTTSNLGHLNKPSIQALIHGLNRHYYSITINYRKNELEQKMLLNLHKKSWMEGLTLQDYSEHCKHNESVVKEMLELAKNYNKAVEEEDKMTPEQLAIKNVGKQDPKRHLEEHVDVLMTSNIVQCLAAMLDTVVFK", "assay": "inhibition of proteasome subunit RPN11 – biochemical, fluorescence polarization, uHTS hits, confirmation (AID 602368)", "format": "functional"}, "[5]": {"molecular_target": "72 kDa type IV collagenase (Homo sapiens, UniProt P08253)", "assay": "Dose Response validation of uHTS RPN11 inhibitor hits using a MMP-2 Fluorescence assay.", "format": "functional"}, "[6]": {"assay": "cytotoxicity toward DRD oncogenic fibroblasts, dose response, cell-based, non-viral oncogenic, luminescence (AID 1934)", "format": "functional", "settings": "Homo sapiens"}, "BJ": {"system": "BJ", "assay": "cytotoxicity toward BJ-TERT fibroblasts, dose response, cell-based, RAS-independent, luminescence (AID 1933)", "format": "functional", "settings": "Homo sapiens"}, "[7]": {"molecular_target": "Serine/threonine-protein kinase Chk1 (Homo sapiens, UniProt O14757)", "sequence (O14757 whole entry)": "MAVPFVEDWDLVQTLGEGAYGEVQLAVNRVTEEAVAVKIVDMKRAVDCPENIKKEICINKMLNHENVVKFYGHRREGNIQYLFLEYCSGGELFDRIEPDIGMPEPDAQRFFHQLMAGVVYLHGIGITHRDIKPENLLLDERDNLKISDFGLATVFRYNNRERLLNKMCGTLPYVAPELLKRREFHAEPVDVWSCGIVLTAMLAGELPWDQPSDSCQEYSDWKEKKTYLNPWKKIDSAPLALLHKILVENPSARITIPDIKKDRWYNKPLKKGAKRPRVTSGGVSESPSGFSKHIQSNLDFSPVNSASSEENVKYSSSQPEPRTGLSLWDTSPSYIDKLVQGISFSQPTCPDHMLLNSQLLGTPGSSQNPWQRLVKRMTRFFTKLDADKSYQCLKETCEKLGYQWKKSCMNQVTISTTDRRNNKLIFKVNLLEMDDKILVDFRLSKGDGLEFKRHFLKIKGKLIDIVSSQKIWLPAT", "format": "functional"}, "[8]": {"molecular_target": "Serine/threonine-protein kinase Nek2 (Homo sapiens, UniProt P51955)", "sequence (P51955 whole entry)": "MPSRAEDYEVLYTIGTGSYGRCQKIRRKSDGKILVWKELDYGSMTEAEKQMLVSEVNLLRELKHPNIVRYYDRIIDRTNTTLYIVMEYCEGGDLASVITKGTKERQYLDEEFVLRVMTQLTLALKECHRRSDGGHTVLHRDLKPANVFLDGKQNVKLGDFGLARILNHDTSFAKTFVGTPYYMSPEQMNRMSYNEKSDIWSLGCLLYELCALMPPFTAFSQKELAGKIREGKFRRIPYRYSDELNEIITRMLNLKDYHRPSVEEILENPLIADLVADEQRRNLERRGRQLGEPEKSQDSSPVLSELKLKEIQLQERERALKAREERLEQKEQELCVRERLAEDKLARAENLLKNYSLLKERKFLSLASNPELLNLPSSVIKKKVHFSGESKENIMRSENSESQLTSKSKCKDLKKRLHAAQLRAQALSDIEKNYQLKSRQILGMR", "format": "functional"}, "[9]": {"molecular_target": "Cyclin-dependent kinase 5 (Homo sapiens, UniProt Q00535)", "sequence (Q00535 whole entry)": "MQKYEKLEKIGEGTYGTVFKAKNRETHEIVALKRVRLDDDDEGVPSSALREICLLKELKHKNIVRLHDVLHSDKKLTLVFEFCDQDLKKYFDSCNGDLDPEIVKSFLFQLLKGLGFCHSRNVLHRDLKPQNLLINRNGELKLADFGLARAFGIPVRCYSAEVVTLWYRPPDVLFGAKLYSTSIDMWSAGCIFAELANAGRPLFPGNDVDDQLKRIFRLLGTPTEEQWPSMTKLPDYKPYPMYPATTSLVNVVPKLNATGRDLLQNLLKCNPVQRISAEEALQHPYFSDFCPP", "format": "functional"}, "[10]": {"molecular_target": "Hepatocyte growth factor receptor (Homo sapiens, UniProt P08581)", "sequence (P08581 whole entry)": "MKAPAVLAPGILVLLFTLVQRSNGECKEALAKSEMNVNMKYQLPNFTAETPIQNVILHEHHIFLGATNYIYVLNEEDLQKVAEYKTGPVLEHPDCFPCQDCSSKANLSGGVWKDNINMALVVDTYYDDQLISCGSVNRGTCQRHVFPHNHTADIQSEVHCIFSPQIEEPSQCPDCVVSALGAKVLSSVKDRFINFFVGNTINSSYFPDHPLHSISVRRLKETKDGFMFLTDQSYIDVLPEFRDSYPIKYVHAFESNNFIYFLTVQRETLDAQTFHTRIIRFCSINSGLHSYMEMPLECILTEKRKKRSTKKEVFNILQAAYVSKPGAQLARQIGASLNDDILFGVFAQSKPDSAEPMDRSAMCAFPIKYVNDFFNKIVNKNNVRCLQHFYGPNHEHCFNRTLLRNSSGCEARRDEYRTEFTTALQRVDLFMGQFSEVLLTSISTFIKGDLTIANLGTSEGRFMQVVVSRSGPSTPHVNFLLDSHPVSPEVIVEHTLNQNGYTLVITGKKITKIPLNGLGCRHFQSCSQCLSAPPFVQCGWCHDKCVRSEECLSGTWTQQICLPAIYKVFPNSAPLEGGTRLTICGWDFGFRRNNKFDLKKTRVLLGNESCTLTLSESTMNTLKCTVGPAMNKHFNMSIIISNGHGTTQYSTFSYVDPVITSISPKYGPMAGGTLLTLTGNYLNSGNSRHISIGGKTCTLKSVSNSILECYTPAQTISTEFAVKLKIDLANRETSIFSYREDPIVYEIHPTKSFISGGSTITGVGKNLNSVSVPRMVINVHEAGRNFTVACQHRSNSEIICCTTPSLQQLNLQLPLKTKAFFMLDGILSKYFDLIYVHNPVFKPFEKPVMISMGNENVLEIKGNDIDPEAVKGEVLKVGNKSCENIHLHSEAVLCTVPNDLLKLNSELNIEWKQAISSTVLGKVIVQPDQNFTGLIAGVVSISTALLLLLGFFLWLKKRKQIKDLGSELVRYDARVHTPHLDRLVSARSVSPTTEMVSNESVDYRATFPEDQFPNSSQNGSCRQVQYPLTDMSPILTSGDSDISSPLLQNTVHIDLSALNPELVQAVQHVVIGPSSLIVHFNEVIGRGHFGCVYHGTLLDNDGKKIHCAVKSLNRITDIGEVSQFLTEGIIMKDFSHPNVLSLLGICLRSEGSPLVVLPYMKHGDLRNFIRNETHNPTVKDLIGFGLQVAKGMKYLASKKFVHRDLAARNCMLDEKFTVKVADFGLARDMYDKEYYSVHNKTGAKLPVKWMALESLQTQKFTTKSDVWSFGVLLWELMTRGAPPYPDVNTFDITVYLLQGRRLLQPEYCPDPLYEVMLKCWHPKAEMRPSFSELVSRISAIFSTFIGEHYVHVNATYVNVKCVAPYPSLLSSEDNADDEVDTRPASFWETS", "format": "functional"}, "[11]": {"molecular_target": "Serine/threonine-protein kinase 3 (Homo sapiens, UniProt Q13188)", "format": "functional"}, "[12]": {"molecular_target": "Cyclin-dependent kinase 2 (Homo sapiens, UniProt P24941)", "format": "functional"}, "[13]": {"molecular_target": "Tyrosine-protein kinase SYK (Homo sapiens, UniProt P43405)", "format": "functional"}, "[14]": {"molecular_target": "Cell division cycle 7-related protein kinase (Homo sapiens, UniProt O00311)", "sequence (O00311 whole entry)": "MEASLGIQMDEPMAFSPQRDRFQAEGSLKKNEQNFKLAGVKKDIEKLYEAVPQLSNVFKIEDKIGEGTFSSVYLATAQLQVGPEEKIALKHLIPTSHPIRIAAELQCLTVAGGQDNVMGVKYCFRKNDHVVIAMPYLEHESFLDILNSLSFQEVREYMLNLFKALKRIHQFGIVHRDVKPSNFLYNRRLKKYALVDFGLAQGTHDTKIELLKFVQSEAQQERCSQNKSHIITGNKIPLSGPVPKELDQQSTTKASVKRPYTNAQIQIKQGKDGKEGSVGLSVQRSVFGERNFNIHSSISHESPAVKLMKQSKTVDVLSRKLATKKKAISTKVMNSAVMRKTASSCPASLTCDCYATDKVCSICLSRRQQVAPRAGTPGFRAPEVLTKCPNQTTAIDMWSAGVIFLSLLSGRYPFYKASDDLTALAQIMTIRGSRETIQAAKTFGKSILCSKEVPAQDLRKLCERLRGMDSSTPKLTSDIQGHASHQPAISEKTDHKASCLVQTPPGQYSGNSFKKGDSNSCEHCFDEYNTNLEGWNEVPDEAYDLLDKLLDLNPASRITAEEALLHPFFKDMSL", "format": "functional"}, "[15]": {"molecular_target": "Calcium/calmodulin-dependent protein kinase type II subunit delta (Homo sapiens, UniProt Q13557)", "sequence (Q13557 whole entry)": "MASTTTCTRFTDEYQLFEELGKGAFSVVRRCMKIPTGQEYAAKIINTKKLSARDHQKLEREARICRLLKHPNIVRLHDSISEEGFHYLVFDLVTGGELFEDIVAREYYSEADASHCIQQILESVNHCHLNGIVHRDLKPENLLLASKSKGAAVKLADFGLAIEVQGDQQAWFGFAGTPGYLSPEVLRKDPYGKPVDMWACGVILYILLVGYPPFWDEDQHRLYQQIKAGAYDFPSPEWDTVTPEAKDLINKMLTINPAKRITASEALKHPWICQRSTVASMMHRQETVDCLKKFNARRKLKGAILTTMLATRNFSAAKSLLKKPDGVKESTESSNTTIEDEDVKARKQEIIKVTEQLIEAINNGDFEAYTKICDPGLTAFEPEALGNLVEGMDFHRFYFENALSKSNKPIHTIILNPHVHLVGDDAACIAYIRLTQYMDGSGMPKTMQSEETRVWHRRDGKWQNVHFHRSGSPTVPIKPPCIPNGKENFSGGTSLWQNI", "format": "functional"}, "[16]": {"assay": "CEM21 lymphoblast cell cytotoxicity, dose response, cytotoxicity control for viral fusion inhibitor project, CellTiter-Glo luminescence, cherry-picked (AID 652042);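 also: potency for signal decrease meaning cytotoxicity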", "format": "functional, cell-based"}, "[17]": {"assay": "HeLa cell cytotoxicity, dose response, cytotoxicity control for MgcRacGAP inhibitor project (AID 624300)", "format": "functional"}, "[18]": {"assay": "C. albicans growth with fluconazole, confirmation, fluorescence, retest (AID 2467)", "format": "functional, cell-based"}, "[19]": {"assay": "inhibitors of clade B AD8 Env fusion, dose response, cell-based, cherry-pick (AID 652062);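 also: potency is for inhibitors of fusion seen as a drop in luminescence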", "format": "functional"}, "[20]": {"assay": "inhibitors of HIV Env-driven cell fusion, dose response, cherry-pick (AID 652057)", "format": "functional, cell-based"}}, "note": "Calls of active or inactive are those of the source."}
{"smiles": "CNC[C@H](Cc1ccccc1)NC[C@@H](Cc1cccc2ccccc12)NCCc1ccc(C)cc1", "values": [{"measurement": "EC50", "setting": "[1]", "value": "18.5 µM (active)"}]}
{"smiles": "O=C(Cc1ccccc1Cl)NC1(O)C(=O)c2ccccc2C1=O", "values": [{"measurement": "IC50", "setting": "[2]", "value": "11.5 µM (inactive)"}, {"measurement": "EC50", "setting": "Protein RecA", "value": "8.18 µM (active)"}]}
{"smiles": "O=C(N/N=C/c1c(O)ccc2ccccc12)c1[nH]ncc1Br", "values": [{"measurement": "EC50", "setting": "[3]", "value": "11.7 µM (active)"}, {"measurement": "IC50", "setting": "[4]", "value": "24 µM (active)"}, {"measurement": "IC50", "setting": "[5]", "value": "> 100 µM (inactive)"}, {"measurement": "EC50", "setting": "[6]", "value": "3.04 µM (active)"}, {"measurement": "EC50", "setting": "BJ", "value": "24.6 µM (active)"}]}
{"smiles": "Nc1c(-c2ccc(NC(=O)Nc3cccc(C(F)(F)F)c3)cc2)cnc2c(-c3ccc4c(c3)OCO4)cnn12", "values": [{"measurement": "Ki", "setting": "[7]", "value": "> 3.16 µM (inactive)"}, {"measurement": "Ki", "setting": "[8]", "value": "1.26 µM (active)"}, {"measurement": "Ki", "setting": "[9]", "value": "> 3.16 µM (inactive)"}, {"measurement": "Ki", "setting": "[10]", "value": "> 2.51 µM (inactive)"}]}
{"smiles": "O=C(Nc1cc(-c2c[nH]c3ncccc23)cc(Cl)n1)c1ccccc1", "values": [{"measurement": "Ki", "setting": "[11]", "value": "> 3.16 µM (inactive)"}, {"measurement": "Ki", "setting": "[12]", "value": "> 3.16 µM (inactive)"}, {"measurement": "Ki", "setting": "[13]", "value": "> 1.58 µM (inactive)"}, {"measurement": "Ki", "setting": "[14]", "value": "0.00158 µM (active)"}, {"measurement": "Ki", "setting": "[15]", "value": "> 3.16 µM (inactive)"}]}
{"smiles": "CCN1C(=Cc2sc3ccccc3[n+]2C)C=Cc2cccc(C)c21", "values": [{"measurement": "AC50", "setting": "[16]", "value": "4.69 µM (active)"}, {"measurement": "CC50", "setting": "[17]", "value": "13.8 µM (active)"}, {"measurement": "EC50", "setting": "[18]", "value": "0.054 µM (active)"}, {"measurement": "AC50", "setting": "[19]", "value": "1.05 µM (active)"}, {"measurement": "AC50", "setting": "[20]", "value": "1.86 µM (active)"}]}
